5 molecules from patent publication US9765069B2, “Antimicrobial compounds” (OXFORD UNIVERSITY INNOVATION LIMITED, priority 2012, dated 2017) can be followed below.

pIC50: −log10 of the molar value. In brackets after ≈: the same amount, converted by molar mass.

One data set has as its system P9B. The data set can be described thus: MIC determination (bacteria), strain P9B. The data set is classed as cell-based, S. pneumoniae. To be noted: 2-fold broth dilution. How it is done:
(§1) MIC determination (bacteria); MICs were determined based on Clinical and Laboratory Standards Institute (CLSI) methodology (Methods for dilution antimicrobial susceptibility tests for bacteria that grow aerobically; Approved Standard—seventh edition. 2006, M7-A7, CLSI, Wayne Pa.) by a 2-fold broth dilution technique in Mueller Hinton (pH7.4 Biorad). For S. pneumoniae, the medium was supplemented with 2.5% laked horse blood. For H. influenzae, the medium was haemophilus test medium (H.T.M.). Overnight cultures were diluted to obtain the final inoculum of 10^5 cfu/well. Incubation was 37° C. overnight in ambient air. The MIC was defined as the lowest concentration which inhibited all visual growth and expressed in μg/ml. For each bacterial species, all of the molecules were tested in the same experiment in order to give a head-to-head comparison.

The nature of data set [1]: aqueous solubility at pH 7.4. The format is physicochemical. To be noted: aqueous solubility at pH 7.4 (water with 2% DMSO). From the text:
(§2) These properties can be determined according to techniques that are well known in the art.

The subject of another data set is H4. The data set can be described thus: MIC determination (bacteria), strain H4. The data set is classed as cell-based, H. influenzae. The settings on record: haemophilus test medium. How it is done: as §1
The test system of another data set is H3. The data set can be described thus: MIC determination (bacteria), strain H3. The data set is classed as cell-based, H. influenzae. To be noted: haemophilus test medium. How it is done:
as §1

The test system of data set [2] is human embryonic kidney 293 cells. The data set can be described thus: in vitro toxicities against human embryonic kidney 293 cells. The settings on record: human embryonic kidney 293 cells. The format is cell-based.
Text: as §2

The test system of another data set is S. aureus membrane. The data set can be described thus: In vitro activity in depolarization of S. aureus membrane. The format is cell-based. The settings on record: read-out: DEP (IC50).
Text: as §2

In the next data set the test system is S26. The data set can be described thus: MIC determination (bacteria), strain S26. The format is cell-based, S. aureus. To be noted: 2-fold broth dilution. As for the experimental part:
as §1
On the technique in general: In broth dilution the organism is exposed to a series of concentrations in liquid medium.

A further data set has as its system E1. The data set can be described thus: MIC determination (bacteria), strain E1. To be noted: 2-fold broth dilution. The data set is classed as cell-based, enterococcus. As for the experimental part:
as §1

The subject of data set [3] is human peripheral blood cells. The data set can be described thus: in vitro toxicities human peripheral blood cells. To be noted: human peripheral blood cells. The data set is classed as cell-based.
Text: as §2

The test system of a further data set is E2. The data set can be described thus: MIC determination (bacteria), strain E2. The format is cell-based, enterococcus. The settings on record: 2-fold broth dilution. As for the experimental part:
as §1

The test system of a further data set is P9. The data set can be described thus: MIC determination (bacteria), strain P9. The data set is classed as cell-based, S. pneumoniae. To be noted: 2-fold broth dilution. As for the experimental part:
as §1

In data set [4] the test system is mammalian_red blood cell membrane. The experiment in a line: In vitro mammalian red blood cell membrane lysis activity. The data set is classed as cell-based. To be noted: Active or inactive at 100 μM.
Text: as §2

The test system of data set [5] is S2 (S. aureus 2, MRSA in vivo). The experiment in a line: MIC determination (bacteria), strain S2. The settings on record: 2-fold broth dilution. The data set is classed as cell-based. How it is done: as §1
The test system of another data set is S4. The experiment in a line: MIC determination (bacteria), strain S4. The data set is classed as cell-based, S. aureus. The settings on record: 2-fold broth dilution. How it is done: as §1
A further data set deals with S1. The data set can be described thus: MIC determination (bacteria), strain S1. The format is cell-based, S. aureus. The settings on record: 2-fold broth dilution. As for the experimental part: as §1
In a further data set the test system is P1. The experiment in a line: MIC determination (bacteria), strain P1. The data set is classed as cell-based, S. pneumoniae. To be noted: 2-fold broth dilution. How it is done:
as §1

One may read the pIC50 as −log10 of the IC50, conventionally taken in molar units. For `CCCCCCCCCC(O)=C1C(=O)C(CCSC)N(C(=O)CC(C)CC(C)(C)C)C1=O` (stereo not shown) [24k], in the data set with P9B (Table 1), the “MIC P9B” value was 2 µg/mL (≈ 4.28 µM). For the same molecule, the “SOL” value in data set [1] is more than 300 µM. For the same molecule, the “MIC H4” value in the data set with H4 (Table 1) worked out at 64 µg/mL (≈ 137 µM). Also, the “MIC H3” value in the data set on H3 (Table 1) is more than 64 µg/mL. Further, the “Hek293 (LD50, μM)” value in data set [2] stood at 10.1 µM. The pIC50 with S. aureus membrane was 4.16. Also, the “MIC S26” value against S26 (Table 1) is 1 µg/mL (≈ 2.14 µM). In the data set on E1 (Table 1), the “MIC E1” value turned out to be 0.5 µg/mL (≈ 1.07 µM). Further, the “PMBC (LD50, μM)” value in data set [3] is 90.9 µM. In the data set with E2 (Table 1), the “MIC E2” value worked out at 0.25 µg/mL (≈ 0.535 µM). Further, the “MIC P9” value in the data set with P9 (Table 1) turned out to be 0.12 µg/mL (≈ 0.257 µM). Besides, the “RBC membrane lysis activity (active/inactive)” value in data set [4] is “Active”. Moreover, in [5] (Table 1), the “MIC S2” value was found to be 0.5 µg/mL (≈ 1.07 µM). In addition, in the data set with S4 (Table 1), the “MIC S4” value was 0.5 µg/mL (≈ 1.07 µM). Moreover, the “MIC S1” value against S1 (Table 1) was found to be 0.5 µg/mL (≈ 1.07 µM). Besides, the “MIC P1” value with P1 (Table 1) was determined as 0.25 µg/mL (≈ 0.535 µM).

In the case of `CCCCCCCCCC(O)=C1C(=O)C(CCSC)N(C(=O)Cc2cccs2)C1=O` (stereo not shown) [24m], the “MIC P9B” value in the data set with P9B (Table 1) stood at 4 µg/mL (≈ 8.86 µM). The “SOL” value in data set [1] was more than 300 µM. In the data set with H4 (Table 1), the “MIC H4” value worked out at 4 µg/mL (≈ 8.86 µM). The “MIC H3” value with H3 (Table 1) was 16 µg/mL (≈ 35.4 µM). In data set [2], the “Hek293 (LD50, μM)” value came out at 30.3 µM. Also, the pIC50 in the data set on S. aureus membrane was less than 4.00. For the same molecule, in the data set on S26 (Table 1), the “MIC S26” value worked out at 4 µg/mL (≈ 8.86 µM). Further, in the data set on E1 (Table 1), the “MIC E1” value is 2 µg/mL (≈ 4.43 µM). Besides, the “PMBC (LD50, μM)” value in [3] amounted to 90.9 µM. Besides, in the data set on E2 (Table 1), the “MIC E2” value came out at 0.5 µg/mL (≈ 1.11 µM). Moreover, in the data set with P9 (Table 1), the “MIC P9” value was 0.25 µg/mL (≈ 0.554 µM). Besides, in [4], the “RBC membrane lysis activity (active/inactive)” value is reported as “Active”. Further, in data set [5] (Table 1), the “MIC S2” value was 2 µg/mL (≈ 4.43 µM). The “MIC S4” value with S4 (Table 1) was 2 µg/mL (≈ 4.43 µM). Moreover, the “MIC S1” value in the data set with S1 (Table 1) is 2 µg/mL (≈ 4.43 µM). In addition, the “MIC P1” value against P1 (Table 1) came out at 0.5 µg/mL (≈ 1.11 µM).

Turning to `CCCCCCCCCC(O)=C1C(=O)CCN(C(=O)c2ccc(OC)cc2)C1=O` [25d], the “MIC P9B” value against P9B (Table 1) came out at 8 µg/mL (≈ 19.9 µM). Further, the “SOL” value in data set [1] was 150 to 300 µM. In addition, the “MIC H4” value against H4 (Table 1) worked out at 8 µg/mL (≈ 19.9 µM). Further, the “MIC H3” value in the data set with H3 (Table 1) turned out to be 64 µg/mL (≈ 159 µM). For the same molecule, the “Hek293 (LD50, μM)” value in data set [2] stood at 90.9 µM. For the same molecule, the pIC50 in the data set on S. aureus membrane is 4.16. In the data set on S26 (Table 1), the “MIC S26” value was determined as 8 µg/mL (≈ 19.9 µM). Further, the “MIC E1” value in the data set on E1 (Table 1) was 4 µg/mL (≈ 9.96 µM). For the same molecule, in data set [3], the “PMBC (LD50, μM)” value was 90.9 µM. The “MIC E2” value against E2 (Table 1) was found to be 4 µg/mL (≈ 9.96 µM). Also, the “MIC P9” value against P9 (Table 1) stood at 2 µg/mL (≈ 4.98 µM). For the same molecule, the “RBC membrane lysis activity (active/inactive)” value in data set [4] was “Active”. Besides, the “MIC S2” value in data set [5] (Table 1) came to 4 µg/mL (≈ 9.96 µM). For the same molecule, the “MIC S4” value in the data set on S4 (Table 1) was found to be 4 µg/mL (≈ 9.96 µM). In the data set with S1 (Table 1), the “MIC S1” value amounted to 8 µg/mL (≈ 19.9 µM). Also, in the data set on P1 (Table 1), the “MIC P1” value stood at 2 µg/mL (≈ 4.98 µM).

As to `CCCCCCC(=O)N1CC(=O)C(=C(O)CC2CC3CCC2C3)C1=O` (stereo not shown) [27a], the “MIC P9B” value against P9B (Table 2) is 4 µg/mL (≈ 11.5 µM). In addition, the “MIC H4” value in the data set with H4 (Table 2 and its footnote f) was determined as 1 µg/mL (≈ 2.88 µM). Further, the “MIC H3” value against H3 (Table 2) was found to be 4 µg/mL (≈ 11.5 µM). For the same molecule, in data set [2], the “Hek293 (LD50, μM)” value was determined as 90.9 µM. The pIC50 in the data set with S. aureus membrane was less than 4.00. Besides, the “MIC S26” value against S26 (Table 2) was determined as 4 µg/mL (≈ 11.5 µM). The “MIC E1” value with E1 (Table 2) is 1 µg/mL (≈ 2.88 µM). Further, the “PMBC (LD50, μM)” value in data set [3] came to 90.9 µM. In the data set with E2 (Table 2), the “MIC E2” value amounted to 2 µg/mL (≈ 5.76 µM). The “MIC P9” value in the data set with P9 (Table 2) is 0.5 µg/mL (≈ 1.44 µM). Further, the “RBC membrane lysis activity (active/inactive)” value in data set [4] was “Inactive^d”. Further, in [5] (Table 2), the “MIC S2” value came out at 2 µg/mL (≈ 5.76 µM). Also, the “MIC S4” value against S4 (Table 2) was 2 µg/mL (≈ 5.76 µM). The “MIC S1” value with S1 (Table 2) came out at 1 µg/mL (≈ 2.88 µM). Besides, the “MIC P1” value in the data set on P1 (Table 2) was 1 µg/mL (≈ 2.88 µM).

As to `CC(C)CC1C(=O)C(=C(O)CCCCCc2ccccc2)C(=O)N1C(=O)c1ccccc1` (stereo not shown) [30a], the “MIC P9B” value against P9B (Table 2) is 4 µg/mL (≈ 9.23 µM). Besides, the “SOL” value in [1] was more than 300 µM. In the data set with H4 (Table 2 and its footnote f), the “MIC H4” value amounted to 8 µg/mL (≈ 18.5 µM). For the same molecule, the “MIC H3” value against H3 (Table 2) was more than 64 µg/mL. Further, the “Hek293 (LD50, μM)” value in data set [2] is more than 90.9 µM. The pIC50 in the data set with S. aureus membrane is less than 4.00. Moreover, the “MIC S26” value in the data set on S26 (Table 2) turned out to be 4 µg/mL (≈ 9.23 µM). Besides, in the data set with E1 (Table 2), the “MIC E1” value turned out to be 2 µg/mL (≈ 4.61 µM). For the same molecule, the “PMBC (LD50, μM)” value in data set [3] was 90.9 µM. Besides, the “MIC E2” value against E2 (Table 2) amounted to 2 µg/mL (≈ 4.61 µM). Also, in the data set with P9 (Table 2), the “MIC P9” value is 1 µg/mL (≈ 2.31 µM). In addition, the “RBC membrane lysis activity (active/inactive)” value in [4] is on record as “Inactive^d”. For the same molecule, the “MIC S2” value in [5] (Table 2) came out at 2 µg/mL (≈ 4.61 µM). Also, the “MIC S4” value with S4 (Table 2) came to 2 µg/mL (≈ 4.61 µM). For the same molecule, the “MIC S1” value in the data set on S1 (Table 2) was 2 µg/mL (≈ 4.61 µM). The “MIC P1” value in the data set on P1 (Table 2) amounted to 1 µg/mL (≈ 2.31 µM).
